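Exposure lasted 48 hours, with cells grown in 96-well plates and compounds tested at five concentrations. Definition used: TGI = concentration required for complete inhibition of growth.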
Columns and labels:
Assay in all cases: DTP human tumour cell line panel, 48 h
OVCAR-4 ovarian = tested on: OVCAR-4 ovarian
786-0 renal = tested on: 786-0 renal
HT29 colon = tested on: HT29 colon
A549 NSCLC = tested on: A549 NSCLC
NCI-H226 lung = tested on: NCI-H226 lung
DMS 273 small cell lung = tested on: DMS 273 small cell lung
LXFL 529 NSCLC = tested on: LXFL 529 NSCLC
DLD-1 colon = tested on: DLD-1 colon
SK-OV-3 ovarian = tested on: SK-OV-3 ovarian
SNB-78 CNS = tested on: SNB-78 CNS
ACHN renal = tested on: ACHN renal
LOX IMVI melanoma = tested on: LOX IMVI melanoma
IGROV1 ovarian = tested on: IGROV1 ovarian
TK-10 renal = tested on: TK-10 renal
OVCAR-3 ovarian = tested on: OVCAR-3 ovarian
SF-539 CNS = tested on: SF-539 CNS
CCRF-CEM leukemia = tested on: CCRF-CEM leukemia
M14 melanoma = tested on: M14 melanoma
SK-MEL-5 melanoma = tested on: SK-MEL-5 melanoma
NCI-H522 lung = tested on: NCI-H522 lung
SNB-75 CNS = tested on: SNB-75 CNS
U251 CNS = tested on: U251 CNS
HOP-18 NSCLC = tested on: HOP-18 NSCLC
OVCAR-8 ovarian = tested on: OVCAR-8 ovarian
SF-295 CNS = tested on: SF-295 CNS
SR leukemia = tested on: SR leukemia
KM12 colon = tested on: KM12 colon
DMS 114 small cell lung = tested on: DMS 114 small cell lung
NCI-H23 lung = tested on: NCI-H23 lung
SNB-19 CNS = tested on: SNB-19 CNS
NCI-H460 lung = tested on: NCI-H460 lung
OVCAR-5 ovarian = tested on: OVCAR-5 ovarian
A498 renal = tested on: A498 renal
MALME-3M melanoma = tested on: MALME-3M melanoma
K-562 leukemia = tested on: K-562 leukemia
KM20L2 colon = tested on: KM20L2 colon
RXF 393 renal = tested on: RXF 393 renal
SK-MEL-2 melanoma = tested on: SK-MEL-2 melanoma
SW-620 colon = tested on: SW-620 colon
EKVX NSCLC = tested on: EKVX NSCLC
UO-31 renal = tested on: UO-31 renal
SF-268 CNS = tested on: SF-268 CNS
HL-60(TB) leukemia = tested on: HL-60(TB) leukemia
M19-MEL melanoma = tested on: M19-MEL melanoma
HOP-62 NSCLC = tested on: HOP-62 NSCLC
HCC-2998 colon = tested on: HCC-2998 colon
SN12C renal = tested on: SN12C renal
UACC-257 melanoma = tested on: UACC-257 melanoma
XF 498 CNS = tested on: XF 498 CNS
HOP-92 NSCLC = tested on: HOP-92 NSCLC
CAKI-1 renal = tested on: CAKI-1 renal
HCT-116 colon = tested on: HCT-116 colon
MOLT-4 leukemia = tested on: MOLT-4 leukemia
SK-MEL-28 melanoma = tested on: SK-MEL-28 melanoma
RPMI-8226 leukemia = tested on: RPMI-8226 leukemia
UACC-62 melanoma = tested on: UACC-62 melanoma
HCT-15 colon = tested on: HCT-15 colon

Measured: TGI

COC(=O)C(/C(=N/NC(N)=O)C(=O)Nc1c(C)cccc1C(C)(C)C)c1nc2ccc(Cl)cc2[nH]c1=O (configuration not stated)
> 100 µM: OVCAR-4 ovarian | 786-0 renal | HT29 colon | A549 NSCLC | NCI-H226 lung | DMS 273 small cell lung | LXFL 529 NSCLC | DLD-1 colon | SK-OV-3 ovarian | SNB-78 CNS | ACHN renal | LOX IMVI melanoma | IGROV1 ovarian | TK-10 renal | OVCAR-3 ovarian | SF-539 CNS | CCRF-CEM leukemia | M14 melanoma | SK-MEL-5 melanoma | NCI-H522 lung | SNB-75 CNS | U251 CNS | HOP-18 NSCLC | OVCAR-8 ovarian | SF-295 CNS | SR leukemia | KM12 colon | DMS 114 small cell lung | NCI-H23 lung | SNB-19 CNS | NCI-H460 lung | OVCAR-5 ovarian | A498 renal | MALME-3M melanoma | K-562 leukemia | KM20L2 colon | RXF 393 renal | SK-MEL-2 melanoma | SW-620 colon | EKVX NSCLC | UO-31 renal | SF-268 CNS | HL-60(TB) leukemia | M19-MEL melanoma | HOP-62 NSCLC | HCC-2998 colon | SN12C renal | UACC-257 melanoma | XF 498 CNS | HOP-92 NSCLC | CAKI-1 renal | HCT-116 colon | MOLT-4 leukemia | SK-MEL-28 melanoma | RPMI-8226 leukemia | UACC-62 melanoma | HCT-15 colon

From PubChem BioAssay (NCI)
